From patent US8420606B2, “Method of utilizing physiological activity of rare saccharide and composition containing rare saccharide” (priority 2002, dated 2013)
Entries after “also recorded” stand apart in the source; their conditions may differ.

How the values were obtained:
[1] = rat blood-sugar value after intravenous saccharide under anesthesia; format: in vivo; conditions: for blood sugar value: 200 mg/kg BW intravenous, normal rats under anesthesia, fasted
Method: (2) Method: 1) Administration of rare saccharide: An SD male rat (with weight of about 300 g) was employed in an experiment after fasting for 20 to 24 hours. Nembutal (58 mg/kg B.W) was applied to the rat through abdominal administration, and after cutting the neck under anesthesia, a silicon tube was fixedly kept inserted in the jugular vein. A 1-ml syringe was connected to the silicon tube for administration of the rare saccharide. 2) Blood-collecting: Blood was collected by using the 1-ml syringe through the silicon tube inserted in the jugular vein. The blood-collecting was made immediately before the administration of the rare saccharide and then after 5, 10, 15, 20, 25, 30, 60, 120, 180 and 240 minutes from the same. 3) Blood sugar measurement: The blood sugar value in the collected blood was measured by using Antosense II (made by Bayer Medical).

CINC-1 mRNA = assay: rat renal ischemia-reperfusion, northern blotting; format: in vivo; conditions: 400 mg/kg into the vein 30 minutes before clamping, 45 minutes ischemia, reperfusion for 2 hours, preliminary
Method: Target . . . Male rat with weight of about 300 g. Experiment method . . . The renal ischemia model was prepared after putting the rat under anesthesia with Nembutal. Renal ischemia . . . After picking up the right kidney, the left renal blood vessel was clamped for 45 minutes. Drugs used . . . D-allose and D-psicose (400 mg/kg per drug) were administrated into the vein 30 minutes before clamping for renal ischemia. Measurement item . . . An influence of each drug upon appearance of a trouble factor, i.e., […] neutrophil chemoattractant (CINC)-1 mRNA, was measured (after reperfusion for 2 hours).

[2] = intravenous grape sugar load test (IVGTT); format: in vivo, rat; conditions: 0.5 g/kg intravenous, rats fasted 16 hours
Method: (2) Method: 1) Intravenous grape sugar load test (IVGTT) . . . IVGTT was conducted on 8-week old male SD rats by inserting a catheter through the jugular vein. A rare saccharide was administrated to 3 rats, and glucose was administrated to other 3 rats.
Perform intravenous injection (IV) at 0.5 g/kg (i.e., 0.5 g/1000 g=500 mg/1000 g=0.5 mg/g).
Prepare rare-saccharide and glucose solutions in concentration of 0.5 g/mL (i.e., 0.5 g/1000 ul=500 mg/1000 ul=0.5 mg/ul). Prepare 2 mL of solution for each concentration.
Intravenously inject 200 ul of the solution for a 200 g rat.
Intravenously inject 250 ul of the solution for a 250 g rat.
Inject 300 ul of physiological saline after the intravenous injection.
Collect 150 ul of blood sample.
Abstain each rat from food for 16 hours as pretreatment. Allow to drink water.
Collect blood at 9 points in time, i.e., 0, 5, 10, 15, 20, 25, 30, 45 and 60 minutes.

[3] = system: Rat leukocyte (granulocyte); assay: production of active oxygen from leukocyte, LO12 chemiluminescence, zymosan; format: cell-based; conditions: for production of active oxygen from leukocyte: saccharide 10 mM added to the producing system, zymosan
Method: Influences of various kinds of rare saccharides upon production of active oxygen from leukocyte were examined under the conditions given below. In this Example 5, an effect against the production of active oxygen from leukocyte was examined with LO12 chemiluminescence.
(1) Target leukocyte to which the rare saccharides were added: Rat leukocyte (granulocyte) was used.
(2) Rare saccharides added: In addition to D-allose as a rare saccharide belonging to aldose, D-psicose and D-altros as rare saccharides belonging to ketose and D-tallitol belong to polyol were added as other comparative saccharides. Further, D-glucose and D-fructose were employed as saccharides abundant in the natural world.
(3) Experiment method: (1) Changes over time in production of active oxygen from rat leukocyte . . . The time-dependent progress in production of active oxygen caused by adding zymosan particles to rat leukocyte (granulocyte) was examined. Also, the time-dependent progress in production of active oxygen caused under the presence of each of the rare saccharides was examined.
(2) Influences of rare saccharides upon production of active oxygen . . . By adding the various saccharides to the system for producing active oxygen from leukocyte, the amount of produced active oxygen was measured for each saccharide. The concentration of each of the added rare saccharides was set to 10 mM. Also, the measurement was made under the condition without addition of any saccharides.
(3) Effect of rare saccharides upon production of active oxygen . . . The rare saccharides were each added at concentration of 10 mM after the start of phagocytosis and the start of the production of active oxygen subsequent to addition of zymosan to leukocyte.
(4) Concentration dependency of active-oxygen production inhibitory effect of D-allose . . . Concentration dependency of the active-oxygen production inhibitory effect of D-allose was examined. D-allose was added at concentration of 0 mM, 5 mM and 10 mM.

human albumin = human albumin (Homo sapiens, UniProt P02768); assay: saccharification (glycation) of albumin, glycoalbumin reagent; format: biochemical; conditions: albumin 3 g/dl
Method: (2) Method: After fragmenting albumin into amino acids by using protease K, i.e., glycoalbumin (GA) measurement reagent (made by Oriental Yeast Co., Ltd.), glycolysine was measured by using ketoamine oxydase (see FIG. 38). Glycation of human albumin with various rare saccharides was examined. A sample was prepared through the steps of dissolving 3 g/dl of pure human albumin in PBS and then dissolving each of the rare saccharides so as to prepare a solution in final concentration of 55.5 mM. The prepared solution was filtrated with a filter of 0.25 μm mesh and sterilized, followed by incubation at 37° C. for 7 days. During the incubation, the GA concentration (glycolysine concentration) was measured at intervals of exactly 24 hours. Further, similar experiments were conducted by adding each of the rare saccharides in an albumin solution (final concentration 3 g/dl) and a glucose solution (final concentration 55.5 mM) so that each of the rare saccharides had final concentration of 55.5 mM.

[4] = saccharide 55.5 mM + D-glucose 55.5 mM
[5] = saccharide 55.5 mM, 37° C., 7 days

Chain of human albumin (P02768 25-609): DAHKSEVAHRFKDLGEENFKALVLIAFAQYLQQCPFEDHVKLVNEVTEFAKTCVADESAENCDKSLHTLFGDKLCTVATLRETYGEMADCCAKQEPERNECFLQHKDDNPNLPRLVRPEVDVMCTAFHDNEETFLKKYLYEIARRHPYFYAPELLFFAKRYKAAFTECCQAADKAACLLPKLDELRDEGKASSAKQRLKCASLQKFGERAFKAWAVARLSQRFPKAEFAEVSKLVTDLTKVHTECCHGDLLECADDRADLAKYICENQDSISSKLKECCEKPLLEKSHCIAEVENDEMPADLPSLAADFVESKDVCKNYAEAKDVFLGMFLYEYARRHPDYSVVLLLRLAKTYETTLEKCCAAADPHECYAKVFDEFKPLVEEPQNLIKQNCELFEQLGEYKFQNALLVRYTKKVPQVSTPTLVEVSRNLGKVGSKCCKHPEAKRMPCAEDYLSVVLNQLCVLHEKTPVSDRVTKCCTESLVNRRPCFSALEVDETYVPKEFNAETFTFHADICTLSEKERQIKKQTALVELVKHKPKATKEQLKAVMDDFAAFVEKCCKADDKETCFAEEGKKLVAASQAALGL

| Structure (SMILES) | blood sugar value [1] | blood sugar value ([1]; listed as Psicose) | appearance rate of CINC-1 mRNA (CINC-1 mRNA) | appearance rate of CINC-1 mRNA (CINC-1 mRNA; listed as psicose) | blood sugar value in IVGTT [2] | insulin concentration in the blood during IVGTT [2] | production of active oxygen from leukocyte [3] | effect of inhibiting glycation under coexistence with glucose (human albumin; [4]) | glycation (saccharification) of albumin (human albumin; [5]) | appearance rate of CINC-1 mRNA (CINC-1 mRNA; listed as allose) | effective concentration for active-oxygen production inhibition ([3]; 0, 5 and 10 mM tested) | production of active oxygen, saccharide added after start of production ([3]; 10 mM added after start of phagocytosis and of active oxygen production) | active-oxygen production inhibitory effect ([3]; D-allose 5 mM) | inhibition at 10000 µM ([3]; Rattus norvegicus, Leukocyte, D-allose 10 mM, read-out: active-oxygen production inhibitory effect) [%] | saccharification rate of albumin under coexistence with glucose (human albumin; [4]) | saccharification rate of albumin (human albumin; [5]) | time until blood sugar value approached a normal value ([1]; D-glucose 200 mg/kg BW intravenous) |
| --- | --- | --- | --- | --- | --- | --- | --- | --- | --- | --- | --- | --- | --- | --- | --- | --- | --- |
| O=C(CO)[C@H](O)[C@H](O)[C@H](O)CO [D-psicose] | light hypoglycemic | reduced during a period of 30 to 60 minutes | suppressed | reduced | no rise of the blood sugar value was found | influences upon the insulin secretion were not found | No inhibitory effect | not found | not found; also recorded: does not promote saccharification of albumin | – | – | – | – | – | – | – | – |
| O=C[C@H](O)[C@H](O)[C@H](O)[C@H](O)CO [D-allose] | no hypoglycemic was found | – | suppressed | – | – | – | inhibited; also recorded: has an effect of inhibiting production of active oxygen; also recorded: very strong effect of inhibiting the production of active oxygen | – | – | reduced | approximately 10 mM | the inhibitory effect was found | did not appear | ≥ 50 | about 140 μmol/day | about 90 μmol/day | – |
| O=C[C@H](O)[C@@H](O)[C@H](O)[C@H](O)CO [D-glucose, reference compound] | temporarily increased | – | – | – | increased | a rise of the insulin concentration was found | No inhibitory effect | – | – | – | – | – | – | – | – | about 50 μmol/day | about 60 minutes |
